The values below come from patent US12440544B2, “Cross-reactive epitope for multiple sclerosis” (The Board of Trustees of the Leland Stanford Junior …, priority 2019, dated 2025).

Type in all cases: cell-based, human
The subject of one assay is MS-1 TCR cell line. Briefly: T cell stimulation assay (CD69), MS1-TCR cell line co-cultured with peptide-loaded T2-DR15 antigen presenting cells. To be noted: for self-peptide identified for TCR2/MS-1 TCR: predicted with positional mutation/refined substitution matrix data, used for MS-1 TCR stimulation. An excerpt: We generated MS1-TCR cell line, co-cultured with T2-DR15 antigen presenting cell line loaded with yeast library generated peptides and were examined for activation. CD69 was used as a marker for T cell activation. […] We used yeast library enrichment data to predict actual peptides/antigens (self or non-self) for MS-1 CD4 TCRs.
TCRα, β constructs were cloned into a lentiviral construct. For TCR expression, alpha and beta TCR lentiviral constructs were transfected into 293× cells separately. The virus was harvested after 72 hr of transfection and transduced into Jurkat αβ^−/− or SKW αβ^−/− cells. SKW or Jurkat cells were enriched for highest expression of TCRαβ by using a Miltenyi anti-APC selection (Miltenyi 130-090-855).
T cell stimulation assays were performed as previously described. All the T cell peptide stimulation experiments were done in 96 well round bottom plates with a 200 μl total volume. T2, K562 cells or BMDCs were pulsed with 10-100 ug of the peptides for 45 minutes, washed once and plated (10,000 cells/well). Cell lines expressing TCRs (100, 000 cells/well) were co-cultured with APCs for 18 hr. At the end of stimulation, cells were harvested, washed, and stained with TCRβ, human CD3, and CD69 and analyzed on LSR II (Becton Dickinson) for activation.

Another assay concerns Adeno-TCR1. The assay can be described thus: T cell stimulation of adeno-tetramer sorted CD4 TCR cell line, cross reactivity with MBP 85-99 peptide. As to conditions: adeno specific TCR cell line stimulated with Adeno peptide and MBP. From the text: (§1) To detect/determine adeno specific T cells directly from MS patients (n=9) and healthy (n=9), we generated pMHC tetramers, enriched, and enumerated CD4's that are specific to the adeno peptide. We were able to detect adeno specific CD4 T cells, which were higher in number among MS patients compared to HC. We also single cell sorted these adeno specific CD4 T cells, sequenced their TCRs, and generated TCR cell lines (adeno specific TCRs).
(§2) TCR cell lines from adeno-tetramer sorted CD4 TCRs were tested for cross reactivity with MBP 85-99 peptide. We also tested MS-1 TCR for cross reactivity with MBP. Adeno specific TCRs were stimulated with Adeno peptide and MBP. TCR2/ms-1 TCR and some of the adeno-TCRs (Adeno-TCR1 and 9) cross react with MBP peptide. Serum from MS (n=28) and HC (n=10) was tested for adeno virus titers in the serum. A subset of MS sera had higher adeno virus compared to HC sera. CD3+ T cells from 8 MS and 5 HCs were sorted, and TCR and RNA-seq performed using 10× platform. Additionally, for 4 out of 8 MS patients, T cells from cerebrospinal fluid were sequenced. […]
(§3) T cell stimulation assays were performed as previously described. […] At the end of stimulation, cells were harvested, washed, and stained with TCRβ, human CD3, and CD69 and analyzed on LSR II (Becton Dickinson) for activation.

A further assay concerns Adeno-TCR9. The description is as above. As to conditions: adeno specific TCR cell line stimulated with Adeno peptide and MBP.
Excerpt: as §1, §2, §3

ANYGKARSWYLK [SEQ ID NO:2]: in the assay on MS-1 TCR cell line, the “self-peptide identified for TCR2/MS-1 TCR” value (“self-peptide identified” for short) is “identified for TCR2/MS-1 TCR”.
In the case of ATFTSYRSWYLA [Adeno], the “stimulation of MS-1 TCR cell line (CD69 as marker for T cell activation)” value in the assay on MS-1 TCR cell line (co-cultured with T2-DR15 antigen presenting cell line loaded with peptide) is recorded as “stimulated MS-1 TCR cell line”.
In the case of DKGQQYRNWFLK [SEQ ID NO:4], the “self-peptide identified” value with MS-1 TCR cell line is given as “identified for TCR2/MS-1 TCR”.
Turning to ENPVVHFFKNIVTPR [MBP peptide], in the assay on MS-1 TCR cell line (TCR cell line stimulated with Adeno peptide and MBP), the “cross reactivity of TCR2/MS-1 TCR with MBP peptide” value was “cross react”. Also, the “cross reactivity of Adeno-TCR1 with MBP peptide” value in the assay with Adeno-TCR1 is recorded as “cross react”. The “cross reactivity of Adeno-TCR9 with MBP peptide” value in the assay with Adeno-TCR9 was “cross react”.
As for IDRHMYHSYLK [SEQ ID NO:3], the “self-peptide identified” value with MS-1 TCR cell line is on record as “identified for TCR2/MS-1 TCR”.
